Assay results from US9303061B2, “Spiro compounds as Hepatitis C virus inhibitors” (Sunshine Luke Pharma Co., Ltd., priority 2011, dated 2016).

Assays:
HCV GT1b replicon cells = experiment: HCV replicon assay, GT1b replicon cells (luciferase reporter / NEO gene qPCR); format: cell-based; details: Hepatitis C virus, GT1B, 72 h, EC50 range against HCV 1b genotype, 72 hours incubation
Procedure: (§1) An HCV Replicon assay was utilized in the present disclosure, and was prepared, developed and validated as described in Science, 1999, 285 (5424), 110-3 and J. Virol., 2003, 77 (5), 3007-19.
(§2) HCV GT1a, GT1b and GT2a replicon cells were used to test the currently described compound series as well as wild-type cells HCV 1b and resistant cells Y93H, L31F, P32L and 1302V. GT1a, GT1b and GT2a are HCV Replicon System which is transfected HCV 1a, 1b, 2a genotype respectively. The system containing G418 resistance gene NEO and Luciferase Reporter Gene can be used to determine the level of HCV replication, and evaluate the effects of the compounds inhibiting HCV replication, by using a real-time quantitative polymerase chain reaction (qPCR) method to detect NEO, and chemiluminescence method to test Luciferase Reporter Gene.
(§3) 1. Testing EC50 of the Compounds by Luciferase Assay
(§4) The GT1a cells and GT1b cells were seeded into 96-well plates (8,000 cells in 125 μl/well) respectively; each compound was diluted to desired concentration using 5-fold serial dilutions protocol, 10 dose in duplicate, and added to wells with POD™ 810 Plate Assembler. The final concentration of DMSO was 0.5%; the plates were incubated in a CO2 incubator for 72 hours; after that, 40 μl of Luciferase assay substrate (Promega Bright-Glo) was added to each well, and detected by a chemiluminescence detection system (Topcount Microplate Scintillation and Luminescence Counter) 5 minutes later; data analysis.
(§5) 2. Testing EC50 of the Compounds by Detecting Antibiotic G418 Resistance Gene NEO Gene
(§6) The GT1a cells and GT1b cells were seeded into 96-well plates (8,000 cells in 125 μl/well) respectively; each compound was diluted to desired concentration using 5-fold serial dilutions protocol, 10 dose in duplicate, and added to wells with POD™ 810 Plate Assembler, the final concentration of DMSO was 0.5%; the cells were incubated in a CO2 incubator for 72 hours; quantitative PCR. • Sample preparation: the supernatant was removed, 100 μl of FCW buffer solution was added to each well, washed carefully and discarded the solution; 50 μl of lysate FCP was added to each well, the cells was lysed as PCR template and PCR template was diluted with DEPC water as sample template. • Quantitative PCR: preparation of reaction mixture according to PCR system; the reaction mixture was dispensed into a 384-well PCR reaction plate (specially for quantitative); and a standard template which was diluted in proportion was distributed into the plate; and the sample template was distributed into the plate; then the 384-well plate was sealed with closure plate membrane; the […] PCR machine was operated by procedures; data analysis.
(§7) 3. Data processing: EC50 values of compounds were analyzed by GRAPHPAD PRISM® software.

HCV GT1a replicon cells = experiment: HCV replicon assay, GT1a replicon cells (luciferase reporter / NEO gene qPCR); format: cell-based; details: Hepatitis C virus, GT1A, EC50 range against HCV 1a genotype, 72 hours incubation
Procedure: as §1, §2, §3, §4, §5, §6, §7

| Compound | EC50 (HCV GT1b replicon cells) [nM] | EC50 (HCV GT1a replicon cells) [nM] |
| --- | --- | --- |
| COC(=O)NC(C(=O)N1CC2(C[C@H]1c1ncc(-c3ccc(-c4ccc(-c5cnc([C@@H]6CCCN6C(=O)[C@@H](NC(=O)OC)C(C)C)[nH]5)c5c4CC4(CCCC4)C5)cc3)[nH]1)OCCO2)C(C)C (stereo partly drawn) [Example 51] | > 10 | 0.001 to 0.1 |
| COC(=O)N[C@H](C(=O)N1C(c2ncc(-c3ccc(-c4ccc(-c5ccc6nc([C@@H]7CC8CC8N7C(=O)[C@@H](NC(=O)OC)C(C)C)[nH]c6c5)c5c4CC4(CCCC4)C5)cc3)[nH]2)CC2CC21)C(C)C (stereo partly drawn) [Example 54] | 0.101 to 1 | 0.001 to 0.1 |
| COC(=O)N[C@H](C(=O)N1CCCC1C(=O)Nc1cccc(-c2ccc(-c3ccc(-c4cnc([C@@H]5CCCN5C(=O)[C@@H](NC(=O)OC)C(C)C)[nH]4)cc3)c3c2CC2(CCCC2)C3)c1)C(C)C (stereo partly drawn) [Example 56] | 1 to 10 | 0.001 to 0.1 |
